The results in this text go back to patent US20260364182A1, “PROTEOLYSIS-TARGETING CHIMERAS AGAINST THE PAPAIN-LIKE PROTEASE OF SARS-COV-2” (Tocris Cookson Limited, priority 2022, published 2026).

Test [1] has as its target T1, SARS-CoV-2 PLpro (Severe acute respiratory syndrome coronavirus 2, UniProt P0DTD1).
T1 construct: The papain-like protease domain (PLpro) of SARS-CoV-2 (SCoV2)
Description: IC50 inhibitory assay, fluorogenic substrate cleavage by PLpro. The test is classed as biochemical. The note with it: SARS-CoV-2 PLpro 0.1 μM; substrate 10 μM; pH 8.1; 37 °C; 10 min preincubation. As to the method: The inhibitory activities of compounds against SARS-CoV-2 PLpro were determined in a reaction buffer containing 20 mM HEPES, 40 mM NaCl, 5% glycerol, 2 mM DTT (freshly added before the measurements), pH 8.1, at 37 °C. A fluorescent substrate of SARS-CoV-2 PLpro (Z-Arg-leu-Arg-Gly-Gly-[…]AMC; Biosyntan, Berlin) was used, and the fluorescence signal of the cleaved substrate was monitored using a Tecan Spark® fluorescence spectrophotometer at an […] wavelength of 460/360 nm. SARS-CoV-2 PLpro (10 μL per well) was pipetted into a 96-well plate together with reaction buffer reaction buffer (50 μL per well, final enzyme concentration: 0.1 μM). Compounds (10 μL per well) were added at varying concentrations, and plates incubated at 37 °C for 10 mins. Finally, the reaction was initiated by adding 30 μL of the substrate (final concentration: 10 μM) dissolved in the reaction buffer.
FIG. 1: PROTAC and parent ligand for SARS-CoV-2 PLpro in a binary IC50 experiment. C10778A PROTAC (top left), comprising a SARS-CoV-2 PLpro targeting ligand C10778B (bottom left) connected to thalidomide via a C3 alkyl linker. IC50 values have been determined in an in vitro inhibitory binding assay whereby the fluorescence signal resulting from cleavage of a fluorogenic substrate by PLpro is measured. Inhibition of PLpro is associated with reduced cleavage of the fluorogenic substrate. […] Assay conditions: experiments were performed in 20 mM HEPES buffer containing 40 mM NaCl 5% glycerol, 2 mM DTT at pH 8.1. A fluorogenic substrate for PLpro (Z-Arg-leu-Arg-Gly-Gly-AMC) was used to determine the inhibition rate of compounds. Final DMSO concentration in each reaction was 1%. Measurements were performed in triplicate.

Test [2] has as its system SARS-CoV-2. Description: Antiviral assay in infected Vero E6 cells (ATP quantification, Cell Titer Glo). Particulars: Severe acute respiratory syndrome coronavirus 2, Vero C1008, 72 h; for inhibition at 10 µM: read-out: Antiviral Activity, 10 uM (cell viability assay), 10 uM; for inhibition at 10 µM / inhibition at 50 µM: Vero E6 cells, MOI 0.05, 72 h; for inhibition at 50 µM: read-out: Antiviral Activity, 50 uM (cell viability assay), 50 uM. (ATP-based viability assays read luminescence as a measure of living cells.)
Description: Vero E6 cells (2×10^4/well) were seeded in 96 well plates one day before the experiment. Pre-treatment, the medium was removed and compounds were added at concentrations varying from 0.1-100 μM. After 24 h incubation, the medium was removed and cells were infected with MOI 0.05 SARS-CoV-2 SARS-CoV2/ZG/297-20. After 1 h infection, the viruses were removed and the same concentration of compounds were added back into the cells. After 72 h incubation at 37 °C, EC50 measurements were made using ATP quantification (Cell Titer Glo).

Test [3] concerns SARS-CoV-2. In words: Plaque reduction assay in Vero E6 cells. The class given is cell-based. Particulars: MOI 0.1.

Where only a bound is given, the exact number is not on record here.

`Cc1ccc(NC(=O)CCCCOc2cc(-c3scnc3C)ccc2CNC(=O)[C@@H]2C[C@@H](O)CN2C(=O)[C@@H](NC(=O)C2(F)CC2)C(C)(C)C)cc1C(=O)N[C@H](C)c1cccc2ccccc12` [TS290]: the 50% inhibitory concentration (IC50) (as a rule, the concentration needed to halve the response being measured) in test [1] was over 25 µM. Besides, in test [2], the inhibition at 10 µM was under 0% and the inhibition at 50 µM was under 25%.

In turn, `C[C@H](c1cccc2ccccc12)N1CCC(C(=O)NCc2cc(F)cc(NC(=O)N3CCN(CCCCCCCCOc4ccc5c(c4)C(=O)N(C4CCC(=O)NC4=O)C5=O)CC3)c2)CC1` (some centres unmarked) [TS516] returned an IC50 in test [1] of 10 to 25 µM. For the same compound, the “plaque reduction (viable virus, in words)” value in test [3] is “efficiently reduces viable virus”. In test [2], a half-maximal response (EC50) required 4.4 µM, the inhibition at 10 µM is under 50% and the inhibition at 50 µM was over 75%.

For `Cc1ccc(NC(=O)CCOCCNc2cccc3c2C(=O)N(C2CCC(=O)NC2=O)C3=O)cc1C(=O)N[C@H](C)c1cccc2ccccc12` (some centres unmarked) [TS144], in test [1], the IC50 was in the range of 10 to 25 µM. Moreover, in test [2], the inhibition at 10 µM is under 0% and the inhibition at 50 µM is under 0%.

Turning to `Cc1ccc(NC(=O)CCCCCCCCC(=O)N[C@H](C(=O)N2C[C@H](O)C[C@H]2C(=O)NCc2ccc(-c3scnc3C)cc2)C(C)(C)C)cc1C(=O)N[C@H](C)c1cccc2ccccc12` [TS311], the IC50 in test [1] was over 25 µM. Besides, in test [2], the inhibition at 10 µM was under 0% and the inhibition at 50 µM is under 0%.

The compound `C[C@H](c1cccc2ccccc12)N1CCC(C(=O)NCc2cc(F)cc(NC(=O)N3CCN(CCOCCOc4cccc5c4C(=O)N(C4CCC(=O)NC4=O)C5=O)CC3)c2)CC1` (some centres unmarked) [TS424] gave an IC50 in test [1] of under 10 µM. In addition, in test [2], the inhibition at 10 µM is under 0% and the inhibition at 50 µM was under 0%.

`Cc1ccc(NC2CCNCC2)cc1C(=O)N[C@H](C)c1cccc(-c2ccc(CNC(=O)CCCNc3ccc4c(c3)C(=O)N(C3CCC(=O)NC3=O)C4=O)s2)c1` (some centres unmarked) [Compound C10778E]: in test [1], the IC50 is under 1 µM. In test [2], the inhibition at 10 µM is under 0% and the inhibition at 50 µM was under 0%.

On to `C[C@H](c1cccc2ccccc12)N1CCC(C(=O)NCc2cc(F)cc(NC(=O)N3CCN(CCCCNC(=O)COc4ccc(C5CCC(=O)NC5=O)cc4)CC3)c2)CC1` (some centres unmarked) [TS526], for which, in test [1], the IC50 is under 10 µM. In test [2], the inhibition at 10 µM was under 0% and the inhibition at 50 µM was under 25%.

`C[C@H](c1cccc2ccccc12)N1CCC(C(=O)NCc2cc(F)cc(NC(=O)N3CCN(CCCCNC(=O)COc4ccc(N5CCC(=O)NC5=O)cc4)CC3)c2)CC1` [TS557] came in with an IC50 in test [1] of under 10 µM. For the same compound, in test [2], the inhibition at 10 µM is under 0% and the inhibition at 50 µM is under 0%.

`Cc1ccc(NC(=O)CCOCCOCCOCCNc2ccc3c4c(cccc24)C(=O)N(C2CCC(=O)NC2=O)C3=O)cc1C(=O)N[C@H](C)c1cccc2ccccc12` (some centres unmarked) [TS182] displayed an IC50 in test [1] of under 10 µM. In test [2], the inhibition at 10 µM was under 0% and the inhibition at 50 µM is under 25%.

In test [1], `Cc1ccc(NC(=O)CCOCCOCCOCCOCCNc2cccc3c2C(=O)N(C2CCC(=O)NC2=O)C3=O)cc1C(=O)N[C@H](C)c1cccc2ccccc12` (some centres unmarked) [TS129] yielded an IC50 of 10 to 25 µM. For the same compound, in test [2], the inhibition at 10 µM was under 0% and the inhibition at 50 µM was under 0%.

`C[C@H](c1cccc2ccccc12)N1CCC(C(=O)NCc2cc(F)cc(NC(=O)N3CCN(CCCCCCCCOc4cccc5c4C(=O)N(C4CCC(=O)NC4=O)C5=O)CC3)c2)CC1` (some centres unmarked) [TS446]: the 50% inhibitory concentration (IC50) in test [1] was over 25 µM. Moreover, in test [2], the inhibition at 10 µM was under 50% and the inhibition at 50 µM is over 75%.

`Cc1ccc(NC(=O)CCCCNc2cccc3c2C(=O)N(C2CCC(=O)NC2=O)C3=O)cc1C(=O)N[C@H](C)c1cccc2ccccc12` (some centres unmarked) [TS267] showed a 50% inhibitory concentration (IC50) in test [1] of under 10 µM. Also, in test [2], the inhibition at 10 µM is under 0% and the inhibition at 50 µM was under 0%.

`Cc1ccc(C(=O)NCCCCN2CCN(C(=O)Nc3cc(F)cc(CNC(=O)C4CCN([C@H](C)c5cccc6ccccc56)CC4)c3)CC2)cc1N1CCC(=O)NC1=O` [TS567] came in with a half-maximal inhibitory concentration (IC50) in test [1] of under 10 µM. Besides, in test [2], the inhibition at 10 µM is under 0% and the inhibition at 50 µM is under 0%.

Compound `C[C@H](c1cccc2ccccc12)N1CCC(C(=O)NCc2cc(F)cc(NC(=O)N3CCN(CCCCC(=O)N4CCN(c5ccc(N6CCC(=O)NC6=O)cc5)CC4)CC3)c2)CC1` [TS553] returned an IC50 in test [1] of under 10 µM. In test [2], the inhibition at 10 µM is under 25% and the inhibition at 50 µM was under 25%.

Regarding `Cc1ccc(NC(=O)CCOCCOCCOCCNc2cccc3c2C(=O)N(C2CCC(=O)NC2=O)C3=O)cc1C(=O)N[C@H](C)c1cccc2ccccc12` (some centres unmarked) [TS128], the IC50 in test [1] was under 10 µM. In addition, in test [2], the inhibition at 10 µM was under 0% and the inhibition at 50 µM was under 0%.

Take `Cc1ccc(NC(=O)CCOCCOCCNc2cccc3c2C(=O)N(C2CCC(=O)NC2=O)C3=O)cc1C(=O)N[C@H](C)c1cccc2ccccc12` (some centres unmarked) [TS139]: in test [1], the IC50 was under 10 µM. Also, in test [2], the inhibition at 10 µM was under 0% and the inhibition at 50 µM was under 25%.

In the case of `C[C@H](c1cccc2ccccc12)N1CCC(C(=O)NCc2cc(F)cc(NC(=O)N3CCN(CCOCCOCCC(=O)N4CCN(c5ccc(N6CCC(=O)NC6=O)cc5)CC4)CC3)c2)CC1` [TS569], in test [1], the IC50 is under 10 µM. In test [2], the inhibition at 10 µM was under 0% and the inhibition at 50 µM is under 25%.

In turn, `C[C@H](c1cccc2ccccc12)N1CCC(C(=O)NCc2cc(F)cc(NC(=O)N3CCN(CCNC(=O)COc4ccc(C5CCC(=O)NC5=O)cc4)CC3)c2)CC1` (some centres unmarked) [TS519] returned a 50% inhibitory concentration (IC50) in test [1] of under 10 µM. Further, in test [2], the inhibition at 10 µM was under 25% and the inhibition at 50 µM is under 25%.

`Cc1ccc(NC(=O)CCCCNc2cccc3c2CN(C2CCC(=O)NC2=O)C3=O)cc1C(=O)N[C@H](C)c1cccc2ccccc12` (some centres unmarked) [TS124] displayed an IC50 in test [1] of under 10 µM. Moreover, in test [2], the inhibition at 10 µM is under 0% and the inhibition at 50 µM was under 25%.

Compound `Cc1ccc(NC(=O)CCNc2cccc3c2C(=O)N(C2CCC(=O)NC2=O)C3=O)cc1C(=O)N[C@H](C)c1cccc2ccccc12` (stereo in doubt) [TS140] had an IC50 in test [1] of over 25 µM. Besides, in test [2], the inhibition at 10 µM was under 0% and the inhibition at 50 µM is under 0%.

`Cc1ccc(NC2CCNCC2)cc1C(=O)N[C@H](C)c1cccc(-c2ccc(CNC(=O)CCCCCNc3ccc4c(c3)C(=O)N(C3CCC(=O)NC3=O)C4=O)s2)c1` (some centres unmarked) [Compound C10778D] had a half-inhibitory concentration (IC50) in test [1] of under 1 µM. Moreover, in test [2], the inhibition at 10 µM is under 0% and the inhibition at 50 µM is under 0%.

As for `C[C@H](c1cccc2ccccc12)N1CCC(C(=O)NCc2cc(F)cc(NC(=O)N3CCN(CC4CCN(c5ccc6c(c5)C(=O)N(C5CCC(=O)NC5=O)C6=O)CC4)CC3)c2)CC1` (some centres unmarked) [TS535], the concentration for half-maximal inhibition (IC50) in test [1] was in the range of 10 to 25 µM. In addition, in test [2], the inhibition at 10 µM was under 25% and the inhibition at 50 µM is under 75%.

The compound `Cc1ccc(NC(=O)CCCCCNc2cccc3c2CN(C2CCC(=O)NC2=O)C3=O)cc1C(=O)N[C@H](C)c1cccc2ccccc12` (some centres unmarked) [TS121] registered a concentration for half-maximal inhibition (IC50) in test [1] of 10 to 25 µM. In test [2], the inhibition at 10 µM is under 0% and the inhibition at 50 µM is under 0%.
